# Columns and labels:
# [1] = test system: ocular substrate; experiment: Subject's report on a hydrogel (soft) contact lens coated with 2–3 drops of the ophthalmic fluid; type: in vivo
# Description: (§1) The ophthalmic fluid of the present invention is suitable for use with gas permeable (hard) contact lenses or hydrogel (soft) contact lenses. In use, 2–3 drops of the ophthalmic fluid of the present invention are placed onto the inside surface of the contact lens. The ophthalmic fluid is then distributed to cover fully and evenly the inside surface of the contact lens by rubbing the ophthalmic fluid into the lens with a fingertip or any other suitable applicator. It is envisaged that the ophthalmic fluid will be biologically sterile. The inside of a contact lens was coated with 2–3 drops of the ophthalmic fluid of the present invention and fitted to the subject in the conventional manner. The subject reported on the perceived ease of inserting the coated lens, the subject's sensual reaction to the coated lens and the resulting vision through the coated lens, in relation to hard and soft contact lenses.
# [2] = test system: ocular substrate; experiment: Subject's report on a gas permeable (hard) contact lens coated with 2–3 drops of the ophthalmic fluid; type: in vivo
# Description: as §1, with “In” for “The ophthalmic fluid of the present invention is suitable for use with gas permeable (hard) contact lenses or hydrogel (soft) contact lenses. In”
Structure (SMILES),sensation upon insertion / amelioration of the normal discomfort when inserting a soft lens [1],tear production/expulsion and maceration [1],vision through the coated lens [1],subject's sensual reaction to the coated lens (comfort/irritation) [2],tear production/expulsion and maceration [2],vision through the coated lens [2],comfort once the coated lens was inserted [1],sensation/discomfort caused by the edges of the lens on the eye [2],time after which initially blurred vision cleared [2],time after which initially blurred vision cleared [1] [min]
"CCCCC/C=C\C/C=C\C/C=C\C/C=C\CCCC(=O)OCC(COC(=O)CCC/C=C\C/C=C\C/C=C\C/C=C\CCCCC)OC(=O)CCC/C=C\C/C=C\C/C=C\C/C=C\CCCCC [triarachidonin, 1,2,3-tri(cis, cis, cis, cis, −5,8,11,14-eicosatetraenoyl)glycerol]",did not produce any noticeable improvement in the wearer's comfort,"increased tear production upon insertion of the soft lens, but no maceration",clear vision,comfortable to wear,did not experience tear production or maceration,excessively and persistently blurred,–,–,–,–
"CCCCC/C=C\C/C=C\CCCCCCCC(=O)OCC(COC(=O)CCCCCCC/C=C\C/C=C\CCCCC)OC(=O)CCCCCCC/C=C\C/C=C\CCCCC [trilinolein, 1,2,3-tri(cis, cis-9,12octadecadienoyl)glycerol]",noticeable amelioration of the normal discomfort,no tear expulsion,immediately clear,could not feel the presence of the coated lens,no tear expulsion,initially experienced blurred vision,could not feel the presence of the coated lens,not reduced to the same extent,approximately 60 seconds,–
"CC/C=C\C/C=C\C/C=C\CCCCCCCC(=O)OCC(COC(=O)CCCCCCC/C=C\C/C=C\C/C=C\CC)OC(=O)CCCCCCC/C=C\C/C=C\C/C=C\CC [trilinolenin, 1,2,3-tri(cis, cis, cis −9,12,15-octadecatrienoyl)glycerol]",–,–,initially experienced blurred vision,extreme irritation,increased tear production and maceration of the ocular substrate,blurred,comfortable to wear,–,–,2
"CCCCCC/C=C\CCCCCCCC(=O)OCC(COC(=O)CCCCCCC/C=C\CCCCCC)OC(=O)CCCCCCC/C=C\CCCCCC [tripalmitolein, 1,2,3-tri(cis-9-hexadecenoyl)glycerol]",–,–,blurred,could not feel the presence of the coated lens,–,excessively blurred,comfortable,not reduced to the same extent,–,–

# Source: patent US7115667B2, “Ophthalmic fluid” (Planned Products Pty Ltd., priority 1999, dated 2006)
